The text below walks through data of paper PMC5157691 (Research and reports in biochemistry, 2016).

The test system of data set [1] is Mac-1-HEK293 cells. Type of data set: cell-based, human.
For data set [2], the system named is αMI-domain. To be noted: surface plasmon resonance and biolayer interferometry; cited from earlier work. (SPR reads the build-up and loss of mass on a sensor chip optically.)
In data set [3] the test system is U937, IC-21 and erythrocytes. The experiment in a line: Binding density of 125I-LL-37-GY on mammalian cells. To be noted: 5 μg/ml 125I-LL-37-GY; U937, IC-21 and erythrocytes vs tested bacteria.
Data set [4] is described as follows: Binding of 125I-LL-37-GY to latex beads. The note with it: 10 μg/ml 125I-labeled LL-37-GY; preliminary experiments.
A further data set concerns neutrophils. To be noted: cited from earlier work.
For data set [5], the system named is wild-type HEK293 cells. The data set is described as follows: Adhesion of wild-type HEK293 cells to immobilized LL-37. Type of data set: cell-based, human.
Data set [6] has as its system adherent IC-21 macrophages. The note with it: LL-37 5 μg/ml, S. aureus, 60 min at 37 °C.
In the next data set the test system is Salmonella. The experiment in a line: Binding density of 125I-LL-37-GY on Salmonella. To be noted: 5 μg/ml 125I-LL-37-GY, 20 min at 22 °C.
The next data set concerns primary human monocytes. To be noted: compared to uncoated beads; cited from earlier work.
For data set [7], the system named is IC-21 macrophages. The note with it: LL-37 10 μg/ml, 1 μm beads, beads:cells 10:1, 30 min at 37 °C.
Data set [8] relates to macrophages. The note with it: pretreatment of macrophages with LL-37; cited from earlier work.
The subject of data set [9] is peritoneal mouse macrophages. To be noted: LL-37 10 μg/ml, 1 μm beads, beads:cells 10:1, 30 min at 37 °C.
For data set [10], the system named is macrophages. The experiment in a line: Phagocytosis of bacteria by macrophages. Type of data set: cell-based.
A further data set has as its system monocyte and macrophages. The note with it: cited from earlier work.
For data set [11], the system named is human peripheral blood monocytes, neutrophils and T cells. The note with it: cited from earlier work.
Data set [12] relates to wild-type HEK293 cells. The data set is described as follows: Spreading of wild-type HEK293 cells on LL-37. Type of data set: cell-based, human. The note with it: 30 min at 37 °C.
Data set [13] relates to Human neutrophils. The note with it: cited from earlier work.
Another data set has as its system mammalian cells. To be noted: LL-37 10 μg/ml; data not shown.
Data set [14] concerns IC-21 macrophages. The experiment in a line: Adhesion of IC-21 macrophages to immobilized peptide. Type of data set: cell-based, murine. To be noted: in words; Fig. 4A shown for K18-37.
The test system of data set [15] is adherent murine peritoneal macrophages. The experiment in a line: Phagocytosis of E. coli and S. aureus by adherent murine peritoneal macrophages. Type of data set: cell-based. The note with it: LL-37 5 μg/ml, 60 min at 37 °C.
In a further data set the test system is leukocytes. The note with it: soluble LL-37; cited from earlier work.
Data set [16] relates to αMI-domain. To be noted: cited from earlier work.
The next data set concerns U937 cells. The data set is described as follows: Adhesion of U937 monocytic cells to immobilized LL-37. Type of data set: cell-based, human. The note with it: data not shown.
The test system of data set [17] is Human neutrophils. To be noted: cited from earlier work. This is another data set of the same source.
The subject of data set [18] is Mac-1-HEK293 cells. The data set is described as follows: Adhesion of Mac-1-HEK293 cells to immobilized peptide. Type of data set: cell-based, human.
The subject of a further data set is wild-type macrophages. The data set is described as follows: Phagocytosis of latex beads by wild-type peritoneal macrophages. Type of data set: cell-based, mouse.
Data set [19] has as its system adherent IC-21 macrophages. The note with it: LL-37 5 μg/ml, E. coli, 60 min at 37 °C.
Another data set concerns rodents. The note with it: LL-37 injection; cited from earlier work.
Data set [20] has as its system Mac-1-deficient macrophages. The experiment in a line: Phagocytosis of latex beads by Mac-1-deficient peritoneal macrophages. Type of data set: cell-based, mouse. To be noted: LL-37-coated beads, 30 min at 37 °C.
In another data set the test system is bacteria. The note with it: bacterial killing in physiologically relevant buffers; cited from earlier work.
The test system of the next data set is human THP-1 cells. To be noted: LL-37 10 μg/ml, 1 μm beads, beads:cells 10:1, 30 min at 37 °C.
For data set [21], the system named is Mac-1-HEK293 cells. The experiment in a line: Spreading of Mac-1-HEK293 cells on LL-37. Type of data set: cell-based, human. The note with it: slides coated with LL-37, 30 min at 37 °C.
In a further data set the test system is murine macrophages. To be noted: opsonization with LL-37; cited from earlier work.
For a further data set, the system named is Mac-1. The note with it: cited from earlier work.
Data set [22] relates to wild-type HEK293 cells. The experiment in a line: Inhibition of wild-type HEK293 cell adhesion to immobilized LL-37. Type of data set: cell-based, human. To be noted: heparin 20 μg/ml, all coating concentrations of LL-37.
Data set [23] relates to IC-21 macrophages. The data set is described as follows: Inhibition of IC-21 macrophage adhesion to immobilized K18-37. Type of data set: cell-based, murine. To be noted: K18-37 coating 0.5 μg/ml; heparin 20 μg/ml; mean ± S.E. from 5-6 experiments.
For data set [24], the system named is Mac-1-HEK293 cells. The experiment in a line: Inhibition of Mac-1-HEK293 cell adhesion to immobilized LL-37. Type of data set: cell-based, human.

Entries after “also recorded” stand apart in the source; their conditions may differ. Like-named read-outs stand apart in the source and are kept apart here. Ends that are not written are not given here.

Consider DIDPKLKWD [reference compound], for which, in the data set with Mac-1-HEK293 cells [1] (control peptide, fibrinogen coated at 2.5 μg/ml, 15 min at 22 °C), the “inhibition of cell adhesion to fibrinogen” value is “inactive”.

Regarding “FKRIVQRIKDFLR [FK-13, reference compound]”, the “interaction with αMI-domain” value with αMI-domain [2] was “no interaction”.

KRIVQRIKDFLRNLVPRTES [K18-37]: the “IC50 for inhibition of cell adhesion to fibrinogen” value in the data set with Mac-1-HEK293 cells [1] (3 h) came to 6 µg/mL.

On to “LL-37-GY: LL-37 containing two additional C-terminal residues Gly-Tyr (LLGDFFRKSKEKIGKEFKRIVQRIKDFLRNLVPRTESGY; also: 125I label, place not given here)”, for which, in [3], the “binding compared with bacteria” value is listed as “bound significantly less”. For the same molecule, the “binding density on beads” value in data set [4] worked out at 10.6±1.3 fg/μm^2.

As to “LLGDFFRKSKEKIGKEFKRIVQRIKDFLRNLVPRTES [LL-37]”, in the data set on neutrophils, the neutrophil activation result is listed as “activates Mac-1 on the surface of neutrophils”. In addition, the “adhesion of wild-type HEK293 cells” value in the data set on wild-type HEK293 cells [5] (LL-37 coating 0-1.0 μg/ml) is reported as “no adhesion”; in the data set on wild-type HEK293 cells [5] (LL-37 coating 1-4 μg/ml), “supported adhesion of wild-type HEK293 cells; however, maximal adhesion did not reach the level attained with Mac-1-HEK293 cells”. For the same molecule, the “fold increase of phagocytosis” value in data set [6] was approximately 10 fold; in data set [19], ~ 17 fold. Besides, the “binding relative to E. coli (fold less)” value in the data set with Salmonella was 1.8 fold. Moreover, the “binding to Salmonella relative to mammalian cells (fold higher)” value in the data set on Salmonella is ~ 17 fold. Also, the “uptake of LL-37-coated beads” value in the data set with primary human monocytes is given as “increased compared to uncoated beads”. For the same molecule, the entries for the “fold augmentation of bead uptake” value (with IC-21 macrophages [7]; in [9]; with human THP-1 cells) were ~ 3.5 fold, approximately 4.5 fold and approximately 6 fold, respectively. Further, the bacterial phagocytosis result in the data set on macrophages [8] is listed as “augmented by pretreatment of macrophages”. In addition, in the data set on αMI-domain [2], the “interaction with αMI-domain” value is listed as “The interaction of the αMI-domain with LL-37 also was recently reported”. Besides, the “phagocytosis of bacteria” value in the data set on macrophages [10] (Gram-negative and Gram-positive bacteria coated with LL-37, abstract) is “significantly potentiated their phagocytosis”. The “concentration found to enhance bacterial phagocytosis” value with macrophages [10] (summary in discussion) was 1 to 5 µg/mL. In addition, in the data set on monocyte and macrophages, the induction of migration result was “induces a potent migratory response of Mac-1-expressing monocytes and macrophages; also recorded: induced Mac-1-dependent migration of monocyte and macrophages”. Moreover, the chemotactic effect result in data set [11] is “chemotactic effect”. Further, the cell spreading entry is “spread at higher LL-37 concentrations” in the data set with wild-type HEK293 cells [12] (LL-37 coating 2 μg/ml), “remained round” in the data set with wild-type HEK293 cells [12] (LL-37 coating 0.2-1.0 μg/ml) and “spread in a concentration-dependent manner with the formation of stress fibers” with Mac-1-HEK293 cells [21]. Moreover, in the data set with Human neutrophils [13], the apoptosis entry was “delayed apoptosis”. Moreover, the “calcein leakage relative to background of control untreated cells” value in the data set on mammalian cells is ~ 3 fold. In the data set with IC-21 macrophages [14], the “adhesion of IC-21 macrophages” value is “strongly adhered”. Besides, the “phagocytosis” value in data set [15] is on record as “increased phagocytosis”; in the data set with murine macrophages it was “increased phagocytosis by murine macrophages”. Further, the “concentration affecting membrane integrity of leukocytes” value in the data set with leukocytes is more than 50 µg/mL. Also, the αMI-domain binding result in the data set on αMI-domain [16] is “binds the αMI-domain”. The “adhesion of U937 cells” value with U937 cells is recorded as “adhered to LL-37 in a concentration-dependent manner”. Besides, the “production of reactive oxygen species” value in the data set with Human neutrophils [17] is on record as “increase the production of reactive oxygen species”. The “adhesion (percent of added cells)” value in the data set on Mac-1-HEK293 cells [18] (LL-37 coating 2 μg/ml, 30 min at 37 °C, calcein fluorescence, n=6) was 52 ± 5%. For the same molecule, the “coating concentration for saturable adhesion” value in the data set with Mac-1-HEK293 cells [18] (Mac-1-HEK293, 30 min at 37 °C) is 2 µg/mL. The “adhesion supported by peptide” value in the data set on Mac-1-HEK293 cells [18] (in words) is on record as “supported strong adhesion; also recorded: supported efficient adhesion”. For the same molecule, the “enhancement of bead uptake” value in the data set with wild-type macrophages (LL-37-coated beads, 30 min at 37 °C, three experiments in triplicate) was ~ 5 times; in the data set with wild-type macrophages (LL-37-coated vs untreated beads, abstract), “several fold higher than that of untreated beads”; in data set [20] it was “failed to augment phagocytosis of beads”. For the same molecule, the “protection from septic death” value in the data set on rodents is “protects rodents from septic death”. Moreover, in the data set on bacteria, the minimal inhibitory concentration is 30 to 100 µg/mL.

As to dynorphin A, the phagocytosis entry in the data set on Mac-1 is “enhance phagocytosis”; with Mac-1 (opsonization, through Mac-1), “opsonizes bacteria and promotes phagocytosis through Mac-1”.

For the molecule heparin, in the data set on wild-type HEK293 cells [22], the “inhibition of adhesion of wild-type HEK293 cells” value was “strong inhibitor of adhesion”. In addition, in the data set on IC-21 macrophages [23], the “inhibition of adhesion to K18-37” value stood at 25 ± 13%.

B1: NIF: neutrophil inhibitory factor, a specific inhibitor of the αMI-domain-ligand interactions (protein)
chain: NEHNLRCPQNGTEMPGFNDSIRLQFLAMHNGYRSKLALGHISITEESESDDDDDFGFLPDFAPRASKMRYLEYDCEAEKSAYMSARNCSDSSSPPEGYDENKYIFENSNNISEAALKAMISWAKEAFNLNKTKEGEGVLYRSNHDISNFANLAWDAREKFGCAVVNCPLGEIDDETNHDGETYATTIHVVCHYPKINKTEGQPIYKVGTPCDDCSEYTKKADNTTSADPVCIPDDGVCFIGSKADYDSKEFYRFREL
Regarding B1, in the data set on Mac-1-HEK293 cells [24] (LL-37 coating high (2 μg/ml or ≥2 μg/ml), inhibitor preincubated 15 min at 22 °C), the “inhibition of adhesion” value is “but not high (≥2 μg/ml) concentrations”. For the same molecule, the “inhibition of cell adhesion to LL-37 (summary, words)” value in the data set with Mac-1-HEK293 cells [24] (abstract, various Mac-1-expressing cells) was “partially inhibited”.
